The test system of test [1] is cancer cell line (B16F10). Nature of the test: PD-L1 expression induced by rPAI-1 in B16F10 with STAT3 inhibitor (Experimental Example 18). Type of test: cell-based, mouse. As to conditions: simultaneous addition of rPAI-1 and STAT3 inhibitor. As for the experimental part:
In order to clarify the mechanism of induction of PD-L1 expression by PAI-1, rPAI-1 was added to a culture medium of a cancer cell line (B16F10); after culturing for 6 hours, the cells were collected, and the degree of phosphorylation of JAK/STAT molecules was analyzed.
Further, FIG. 18(B) confirmed that the increase in the PD-L1 expression induced by rPAI-1 was suppressed by simultaneous addition of rPAI-1 and a STAT3 inhibitor (BP-1-102, C188-9).

Test [2] concerns the target T1, human PAI-1 (Homo sapiens, UniProt P05121). Nature of the test: PAI-1 inhibitory activity, t-PA with S-2288 chromogenic substrate (Reference Experimental Example 1). As to conditions: system without compound after 30 minutes = 100%.
Description: Subsequently, human-derived tissue plasminogen activator (t-PA) (manufactured by American Diagnostica, Inc. (USA); the same applies hereinafter) adjusted to 0.35 pmol/μL was added thereto, and the mixture was further incubated at 37° C. for 15 minutes.
Test [3] addresses T1, human PAI-1. Kind of test: PAI-1 inhibitory activity, t-PA with Spectrozyme t-PA chromogenic substrate (Reference Experimental Example 2). Type of test: biochemical. Further details: purchased Molecular Innovations, Inc. (USA). As to conditions: head prints no concentration. Here is the method: Subsequently, human-derived tissue plasminogen activator (t-PA) (manufactured by American Diagnostica, Inc. (USA); the same applies hereinafter) adjusted to 0.05 pmol/μL was added thereto, and the mixture was further incubated at 37° C. for 60 minutes. Then, 0.25 mM of Spectrozyme t-PA synthetic substrate (manufactured by American Diagnostica, Inc. (USA); the same applies hereinafter), which is a chromogenic substrate, was added. […]
Free p-nitroaniline removed from the chromogenic substrate (Spectrozyme t-PA) by t-PA action was measured using a spectrophotometer at an absorbance of 405 nm at 20-minute intervals, for 120 minutes.

Setting [4] is: Tables 5 to 7, first value column.
The mark [5] stands for this setting: Tables 5 to 7, second value column.

The values that follow come from patent US20220340665A1, “INHIBITOR AGAINST EXPRESSION OF IMMUNE CHECKPOINT MOLECULE” (RENASCIENCE INC., priority 2019, published 2022).

T1 sequence (P05121 24-402): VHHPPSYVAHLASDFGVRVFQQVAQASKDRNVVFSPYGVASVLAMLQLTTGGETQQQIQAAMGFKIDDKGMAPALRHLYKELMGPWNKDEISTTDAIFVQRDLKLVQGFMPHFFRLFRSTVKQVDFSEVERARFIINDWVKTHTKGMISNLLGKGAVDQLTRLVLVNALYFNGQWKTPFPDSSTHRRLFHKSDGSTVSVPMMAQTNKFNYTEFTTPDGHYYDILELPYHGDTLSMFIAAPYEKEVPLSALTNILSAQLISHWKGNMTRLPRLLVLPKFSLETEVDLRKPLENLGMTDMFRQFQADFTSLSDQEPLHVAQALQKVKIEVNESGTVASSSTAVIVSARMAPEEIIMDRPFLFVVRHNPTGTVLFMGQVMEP

In the case of `CN(CC(=O)N(Cc1ccc(C2CCCCC2)cc1)c1ccc(C(=O)O)c(O)c1)S(=O)(=O)c1c(F)c(F)c(F)c(F)c1F` [BP-1-102], the “increase in the PD-L1 expression induced by rPAI-1” value in test [1] is on record as “suppressed”.

In the case of `O=C(CCCNC(=O)c1cccc(-c2ccoc2)c1)Nc1ccc(Cl)cc1C(=O)O` [Example 1], the results for the PAI-1 activity % on human PAI-1 [2] (compound 20 μm (head)) and on human PAI-1 [2] (compound 50 μm (head)) were 95.5% and 48.9%, respectively.

On to `O=C([O-])c1cc(Cl)ccc1NC(=O)C1CCCN(C(=O)c2cccc(-c3ccoc3)c2)C1.[Na+]` (stereo not shown) [Example 11], for which the PAI-1 activity % came to 68.2% on human PAI-1 [2] (compound 20 μm (head)) and 26.1% on human PAI-1 [2] (compound 50 μm (head)).

Turning to `O=C(O)c1cc(Cl)ccc1NC(=O)C1CCCN(C(=O)Cc2cccc(-c3ccoc3)c2)C1` (stereo not shown) [Example 12], the PAI-1 activity % was 57.7% on human PAI-1 [2] (compound 20 μm (head)) and 15.7% on human PAI-1 [2] (compound 50 μm (head)).

Take `O=C(Nc1ccc(Cl)cc1C(=O)[O-])c1cccc(OCc2ccc3ccccc3n2)c1.[Na+]` [Example 99, 5-chloro-2-(((3-(quinolin-2-ylmethoxy)phenyl)carbonyl)amino)sodium benzoate]: the values for the PAI-1 activity % on human PAI-1 [3] (setting [4]) and on human PAI-1 [3] (setting [5]) were 0.3% and 87.8%, respectively.

Regarding `O=C(Nc1ccc(Cl)cc1C(=O)[O-])c1ccc(OCc2ccc3ccccc3n2)cc1.[Na+]` [Example 100, 5-chloro-2-(((4-(quinolin-2-ylmethoxy)phenyl)carbonyl)amino)sodium benzoate], the PAI-1 activity % at human PAI-1 [3] (setting [4]) stood at 0.7%; at human PAI-1 [3] (setting [5]), 92.1%.

For the molecule `O=C(/C=C/c1cccc(-c2cccc3cccnc23)c1)Nc1ccc(Cl)cc1C(=O)[O-].[Na+]` [Example 101, 5-chloro-2-(((2E)-3-(3-(quinolin-8-yl)phenyl)prop-2-enoyl)amino)sodium benzoate], the PAI-1 activity % at human PAI-1 [3] (setting [4]) is 0.2%; at human PAI-1 [3] (setting [5]) it was 24.7%.

On to `O=C(/C=C/c1cccc(-c2cccnc2)c1)Nc1ccc(Cl)cc1C(=O)[O-].[Na+]` [Example 103, 5-chloro-2-(((2E)-3-[3-(pyridin-3-yl)phenyl]prop-2-enoyl)amino)sodium benzoate], for which the PAI-1 activity % on human PAI-1 [3] (setting [4]) is reported as 34.2%; at human PAI-1 [3] (setting [5]), 92.3%.

Turning to `O=C(Nc1ccc(C23CC4CC(CC(C4)C2)C3)cc1)C(=O)Nc1ccc(Cl)cc1C(=O)[O-].[Na+]` [Example 106, [(([4-(adamantan-1-yl)phenyl]amino)(oxo)acetyl)amino]-5-sodium chlorobenzoate], the PAI-1 activity % turned out to be 26.3% at human PAI-1 [3] (setting [4]) and 88.4% on human PAI-1 [3] (setting [5]).

For `O=C([O-])c1cc(Cl)ccc1NC(=O)c1cc(-c2ccccc2)nc2ccccc12.[Na+]` [Example 107, 5-chloro-2-(((2-phenylquinolin-4-yl)carbonyl)amino)sodium benzoate], the PAI-1 activity % was found to be 6.7% at human PAI-1 [3] (setting [4]) and 100.0% at human PAI-1 [3] (setting [5]).

Regarding `COc1ccc(S(=O)(=O)Nc2cc(-c3c(O)ccc4ccccc34)c(O)c3ccccc23)cc1` [Example C188-9], the “increase in the PD-L1 expression induced by rPAI-1” value in test [1] is given as “suppressed”.

For `O=C(COc1ccc(C2CCCCC2)cc1)Nc1ccc(Cl)cc1C(=O)O` [Existing compound 3, 5-chloro-2-(((4-cyclohexylphenoxy)aceytl)amino)benzoic acid, reference compound], the values for the PAI-1 activity % at human PAI-1 [3] (setting [4]) and on human PAI-1 [3] (setting [5]) were 0.3% and 36.3%, respectively.
